Measured values published in ChEMBL document CHEMBL4190187, “Discovery of pyrazolopyrimidine derivatives as novel inhibitors of ataxia telangiectasia and rad3 related protein (ATR)” (Bioorg Med Chem Lett, 2017).

Columns and labels:
[1] = biological target: Calcium/calmodulin-dependent protein kinase type II subunit delta (Homo sapiens) (UniProt Q13557); experiment: Inhibition of recombinant full-length human CAMK2delta at 1 uM using […] after 40 mins in presence of [gamma-33P]ATP by scintillation counting method
[2] = biological target: NT-3 growth factor receptor (Homo sapiens) (UniProt Q16288); experiment: Inhibition of recombinant human TrkC (510 to end residues) at 1 uM using GEEPLYWSFPAKKK as substrate after 40 mins in presence of [gamma-33P]ATP by scintillation counting method
[3] = biological target: Activin receptor type-1B (Homo sapiens) (UniProt P36896); experiment: Inhibition of recombinant human ALK4 (150 to end residues) at 1 uM using casein as substrate after 40 mins in presence of [gamma-33P]ATP by scintillation counting method
[4] = biological target: NUAK family SNF1-like kinase 2 (Homo sapiens) (UniProt Q9H093); experiment: Inhibition of recombinant full-length human NUAK2 at 1 uM using KKKVSRSGLYRSPSMPENLNRPR as substrate after 40 mins in presence of [gamma-33P]ATP by scintillation counting method
[5] = biological target: Dual specificity mitogen-activated protein kinase kinase 6 (Homo sapiens) (UniProt P52564); experiment: Inhibition of recombinant human MKK6 (4 to end residues) at 1 uM using inactive SAPK2a as substrate after 40 mins in presence of [gamma-33P]ATP by scintillation counting method
[6] = biological target: Bone morphogenetic protein receptor type-1B (Homo sapiens) (UniProt O00238); experiment: Inhibition of recombinant human ALK6 (148 to end residues) at 1 uM using casein as substrate after 40 mins in presence of [gamma-33P]ATP by scintillation counting method
[7] = biological target: Tyrosine-protein kinase Lck (Homo sapiens) (UniProt P06239); experiment: Inhibition of recombinant full-length human activated Lck at 1 uM using KVEKIGEGTYGVVYK as substrate after 40 mins in presence of [gamma-33P]ATP by scintillation counting method
[8] = biological target: Protein kinase C zeta type (Homo sapiens) (UniProt Q05513); experiment: Inhibition of recombinant human PKCzeta (2 to end residues) at 1 uM using ERMRPRKRQGSVRRRV as substrate after 40 mins in presence of [gamma-33P]ATP by scintillation counting method
[9] = biological target: Serine/threonine-protein kinase Sgk3 (Homo sapiens) (UniProt Q96BR1); experiment: Inhibition of recombinant human SGK3 (119 to end residues) at 1 uM using GRPRTSSFAEGKK as substrate after 40 mins in presence of [gamma-33P]ATP by scintillation counting method
[10] = tested on: Mast/stem cell growth factor receptor Kit (Homo sapiens), P10721 [D816H]; experiment: Inhibition of recombinant human cKit D816H mutant (544 to end residues) at 1 uM using GGMEDIYFEFMGGKKK as substrate after 40 mins in presence of [gamma-33P]ATP by scintillation counting method
[11] = biological target: Death-associated protein kinase 2 (Homo sapiens) (UniProt Q9UIK4); experiment: Inhibition of recombinant full-length human DAPK2 at 1 uM using […] after 40 mins in presence of [gamma-33P]ATP by scintillation counting method
Sequence of Death-associated protein kinase 2 (Homo sapiens) (Q9UIK4 whole entry, looked up): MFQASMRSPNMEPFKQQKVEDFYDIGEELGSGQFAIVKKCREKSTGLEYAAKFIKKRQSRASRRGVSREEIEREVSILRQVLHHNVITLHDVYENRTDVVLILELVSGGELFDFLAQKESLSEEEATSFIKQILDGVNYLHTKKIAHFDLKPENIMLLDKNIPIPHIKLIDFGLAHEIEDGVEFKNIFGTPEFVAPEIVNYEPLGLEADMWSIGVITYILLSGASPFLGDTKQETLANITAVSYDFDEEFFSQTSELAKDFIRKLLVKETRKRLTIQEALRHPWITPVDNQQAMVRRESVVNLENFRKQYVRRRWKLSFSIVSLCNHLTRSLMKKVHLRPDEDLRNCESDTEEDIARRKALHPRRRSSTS

[12] = biological target: Tyrosine-protein kinase BTK (Homo sapiens, UniProt Q06187); experiment: Inhibition of recombinant full-length human BTK at 1 uM using KVEKIGEGTYGVVYK as substrate after 40 mins in presence of [gamma-33P]ATP by scintillation counting method
[13] = biological target: Receptor tyrosine-protein kinase erbB-2 (Homo sapiens) (UniProt P04626); experiment: Inhibition of recombinant human ErbB2 (676 to end residues) at 1 uM using poly(Glu,Tyr) 4:1 as substrate after 40 mins in presence of [gamma-33P]ATP by scintillation counting method
[14] = biological target: Serine/threonine-protein kinase 24 (Homo sapiens) (UniProt Q9Y6E0); experiment: Inhibition of recombinant human MST3 (1 to 304 residues) at 1 uM using ERMRPRKRQGSVRRRV as substrate after 40 mins in presence of [gamma-33P]ATP by scintillation counting method
[15] = biological target: Dual specificity tyrosine-phosphorylation-regulated kinase 3 (Homo sapiens) (UniProt O43781); experiment: Inhibition of recombinant full-length human DYRK3 at 1 uM using RRRFRPASPLRGPPK as substrate after 40 mins in presence of [gamma-33P]ATP by scintillation counting method
Sequence of Dual specificity tyrosine-phosphorylation-regulated kinase 3 (Homo sapiens) (O43781 whole entry): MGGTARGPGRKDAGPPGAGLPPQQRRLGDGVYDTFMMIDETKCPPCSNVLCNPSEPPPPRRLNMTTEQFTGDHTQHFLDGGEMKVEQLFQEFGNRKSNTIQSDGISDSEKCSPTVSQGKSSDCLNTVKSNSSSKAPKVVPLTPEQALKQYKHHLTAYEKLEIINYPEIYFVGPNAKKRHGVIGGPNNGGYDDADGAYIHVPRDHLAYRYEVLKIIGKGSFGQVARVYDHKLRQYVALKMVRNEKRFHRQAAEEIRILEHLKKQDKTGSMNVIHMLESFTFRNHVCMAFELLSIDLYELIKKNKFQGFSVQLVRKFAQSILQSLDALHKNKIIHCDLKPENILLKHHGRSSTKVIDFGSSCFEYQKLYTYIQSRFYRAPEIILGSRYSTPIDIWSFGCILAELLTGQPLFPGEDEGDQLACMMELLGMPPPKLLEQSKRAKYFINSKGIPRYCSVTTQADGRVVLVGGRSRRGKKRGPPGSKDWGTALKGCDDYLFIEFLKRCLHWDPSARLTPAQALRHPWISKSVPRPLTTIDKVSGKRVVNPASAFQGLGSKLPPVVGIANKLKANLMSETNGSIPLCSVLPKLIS

[16] = biological target: G protein-coupled receptor kinase 3 (Homo sapiens) (UniProt P35626); experiment: Inhibition of recombinant full-length human GRK3 at 1 uM using casein as substrate after 40 mins in presence of [gamma-33P]ATP by scintillation counting method
Sequence of G protein-coupled receptor kinase 3 (Homo sapiens) (P35626 whole entry): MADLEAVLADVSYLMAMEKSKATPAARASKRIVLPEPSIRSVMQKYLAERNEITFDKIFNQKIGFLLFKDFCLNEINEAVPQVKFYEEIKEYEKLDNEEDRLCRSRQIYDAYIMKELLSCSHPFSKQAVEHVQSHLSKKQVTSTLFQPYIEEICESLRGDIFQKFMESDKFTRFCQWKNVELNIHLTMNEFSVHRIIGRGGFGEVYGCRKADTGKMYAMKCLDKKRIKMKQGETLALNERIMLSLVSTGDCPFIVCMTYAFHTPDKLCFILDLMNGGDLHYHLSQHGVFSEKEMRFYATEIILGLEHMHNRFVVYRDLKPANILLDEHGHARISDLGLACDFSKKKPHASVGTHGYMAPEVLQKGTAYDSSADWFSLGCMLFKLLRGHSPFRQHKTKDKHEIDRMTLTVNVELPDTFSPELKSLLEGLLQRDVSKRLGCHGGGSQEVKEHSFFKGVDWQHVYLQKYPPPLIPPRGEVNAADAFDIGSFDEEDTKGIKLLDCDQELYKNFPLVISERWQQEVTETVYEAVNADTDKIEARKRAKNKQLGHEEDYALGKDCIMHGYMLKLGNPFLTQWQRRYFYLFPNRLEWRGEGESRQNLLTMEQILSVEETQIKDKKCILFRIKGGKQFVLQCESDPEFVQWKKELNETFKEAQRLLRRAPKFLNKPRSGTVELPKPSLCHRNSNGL

[17] = biological target: Serine/threonine-protein kinase Nek6 (Homo sapiens) (UniProt Q9HC98); experiment: Inhibition of recombinant human NEK6 (2 to end residues) at 1 uM using FLAKSFGSPNRAYKK as substrate after 40 mins in presence of [gamma-33P]ATP by scintillation counting method
[18] = biological target: TRAF2 and NCK-interacting protein kinase (Homo sapiens) (UniProt Q9UKE5); experiment: Inhibition of recombinant human TNIK (1 to 367 residues) at 1 uM using RLGRDKYKTLRQIRQ as substrate after 40 mins in presence of [gamma-33P]ATP by scintillation counting method
[19] = biological target: MAPK/MAK/MRK overlapping kinase (Homo sapiens) (UniProt Q9UQ07); experiment: Inhibition of recombinant human MOK (1 to 343 residues) at 1 uM using RSRSRSRSRSRSRSR as substrate after 40 mins in presence of [gamma-33P]ATP by scintillation counting method
[20] = biological target: Tyrosine-protein kinase receptor UFO (Homo sapiens) (UniProt P30530); experiment: Inhibition of recombinant human Axl (473 to end residues) at 1 uM using KKSRGDYMTMQIG as substrate after 40 mins in presence of [gamma-33P]ATP by scintillation counting method
[21] = biological target: SNF-related serine/threonine-protein kinase (Homo sapiens) (UniProt Q9NRH2); experiment: Inhibition of recombinant human SNRK (1 to 505 residues) at 1 uM using KKLRRTLSFAEPG as substrate after 40 mins in presence of [gamma-33P]ATP by scintillation counting method
Sequence of SNF-related serine/threonine-protein kinase (Homo sapiens) (Q9NRH2 whole entry, the tested form may be a part): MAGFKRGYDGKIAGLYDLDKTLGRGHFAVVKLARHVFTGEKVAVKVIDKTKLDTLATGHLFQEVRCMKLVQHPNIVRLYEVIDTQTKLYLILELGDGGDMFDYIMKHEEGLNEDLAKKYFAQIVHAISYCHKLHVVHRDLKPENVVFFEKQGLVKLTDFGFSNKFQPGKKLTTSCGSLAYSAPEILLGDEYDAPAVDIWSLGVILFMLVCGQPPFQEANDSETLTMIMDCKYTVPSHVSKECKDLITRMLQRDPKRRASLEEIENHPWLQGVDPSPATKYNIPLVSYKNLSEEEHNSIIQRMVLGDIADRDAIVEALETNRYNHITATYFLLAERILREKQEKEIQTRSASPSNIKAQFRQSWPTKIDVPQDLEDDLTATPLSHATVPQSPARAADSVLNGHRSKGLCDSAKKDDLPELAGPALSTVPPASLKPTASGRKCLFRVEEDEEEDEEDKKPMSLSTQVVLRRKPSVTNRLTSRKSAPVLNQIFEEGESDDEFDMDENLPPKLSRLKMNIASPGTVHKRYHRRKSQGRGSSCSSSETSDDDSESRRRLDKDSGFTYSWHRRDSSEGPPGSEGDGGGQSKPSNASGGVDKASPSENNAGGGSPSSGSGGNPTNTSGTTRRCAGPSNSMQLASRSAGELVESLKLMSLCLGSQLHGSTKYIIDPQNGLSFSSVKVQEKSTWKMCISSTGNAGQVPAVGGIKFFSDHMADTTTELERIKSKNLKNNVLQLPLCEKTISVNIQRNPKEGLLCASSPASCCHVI

[22] = biological target: Tyrosine-protein kinase JAK1 (Homo sapiens) (UniProt P23458); experiment: Inhibition of recombinant human JAK1 (866 to end residues) at 1 uM using GEEPLYWSFPAKKK as substrate after 40 mins in presence of [gamma-33P]ATP by scintillation counting method
Sequence of Tyrosine-protein kinase JAK1 (Homo sapiens) (P23458 whole entry, the tested form may be a part): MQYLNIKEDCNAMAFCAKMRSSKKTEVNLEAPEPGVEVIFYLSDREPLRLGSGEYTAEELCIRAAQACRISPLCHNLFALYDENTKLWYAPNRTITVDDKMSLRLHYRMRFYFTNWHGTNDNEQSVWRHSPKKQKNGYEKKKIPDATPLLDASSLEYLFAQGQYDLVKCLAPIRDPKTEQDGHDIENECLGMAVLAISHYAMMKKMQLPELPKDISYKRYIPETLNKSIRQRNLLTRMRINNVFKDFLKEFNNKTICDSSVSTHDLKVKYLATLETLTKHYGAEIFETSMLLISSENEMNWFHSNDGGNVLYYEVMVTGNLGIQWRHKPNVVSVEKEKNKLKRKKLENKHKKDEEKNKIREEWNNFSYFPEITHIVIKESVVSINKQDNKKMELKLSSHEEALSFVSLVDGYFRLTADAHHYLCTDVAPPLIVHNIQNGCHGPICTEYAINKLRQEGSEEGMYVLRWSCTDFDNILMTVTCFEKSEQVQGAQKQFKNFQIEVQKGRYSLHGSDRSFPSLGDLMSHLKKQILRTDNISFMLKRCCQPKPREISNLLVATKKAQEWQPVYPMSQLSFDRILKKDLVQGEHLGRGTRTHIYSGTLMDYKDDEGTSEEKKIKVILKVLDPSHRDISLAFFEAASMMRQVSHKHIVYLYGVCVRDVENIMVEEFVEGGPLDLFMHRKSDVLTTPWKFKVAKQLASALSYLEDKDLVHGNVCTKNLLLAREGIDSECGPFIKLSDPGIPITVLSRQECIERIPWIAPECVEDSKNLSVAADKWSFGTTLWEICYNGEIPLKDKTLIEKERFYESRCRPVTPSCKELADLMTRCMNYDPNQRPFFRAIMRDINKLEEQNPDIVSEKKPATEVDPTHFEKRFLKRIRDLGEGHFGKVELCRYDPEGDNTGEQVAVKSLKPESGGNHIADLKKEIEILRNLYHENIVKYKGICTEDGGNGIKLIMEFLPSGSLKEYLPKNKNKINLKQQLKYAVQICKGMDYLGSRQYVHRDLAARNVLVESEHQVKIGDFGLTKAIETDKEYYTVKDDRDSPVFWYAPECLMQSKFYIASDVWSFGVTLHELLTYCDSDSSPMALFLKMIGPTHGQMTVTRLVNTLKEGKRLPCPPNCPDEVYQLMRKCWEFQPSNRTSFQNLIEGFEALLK

[23] = biological target: Mitogen-activated protein kinase kinase kinase kinase 2 (Homo sapiens) (UniProt Q12851); experiment: Inhibition of recombinant human GCK (1 to 473 residues) at 1 uM using myelin basic protein as substrate after 40 mins in presence of [gamma-33P]ATP by scintillation counting method
Sequence of Mitogen-activated protein kinase kinase kinase kinase 2 (Homo sapiens) (Q12851 whole entry, the tested form may be a part): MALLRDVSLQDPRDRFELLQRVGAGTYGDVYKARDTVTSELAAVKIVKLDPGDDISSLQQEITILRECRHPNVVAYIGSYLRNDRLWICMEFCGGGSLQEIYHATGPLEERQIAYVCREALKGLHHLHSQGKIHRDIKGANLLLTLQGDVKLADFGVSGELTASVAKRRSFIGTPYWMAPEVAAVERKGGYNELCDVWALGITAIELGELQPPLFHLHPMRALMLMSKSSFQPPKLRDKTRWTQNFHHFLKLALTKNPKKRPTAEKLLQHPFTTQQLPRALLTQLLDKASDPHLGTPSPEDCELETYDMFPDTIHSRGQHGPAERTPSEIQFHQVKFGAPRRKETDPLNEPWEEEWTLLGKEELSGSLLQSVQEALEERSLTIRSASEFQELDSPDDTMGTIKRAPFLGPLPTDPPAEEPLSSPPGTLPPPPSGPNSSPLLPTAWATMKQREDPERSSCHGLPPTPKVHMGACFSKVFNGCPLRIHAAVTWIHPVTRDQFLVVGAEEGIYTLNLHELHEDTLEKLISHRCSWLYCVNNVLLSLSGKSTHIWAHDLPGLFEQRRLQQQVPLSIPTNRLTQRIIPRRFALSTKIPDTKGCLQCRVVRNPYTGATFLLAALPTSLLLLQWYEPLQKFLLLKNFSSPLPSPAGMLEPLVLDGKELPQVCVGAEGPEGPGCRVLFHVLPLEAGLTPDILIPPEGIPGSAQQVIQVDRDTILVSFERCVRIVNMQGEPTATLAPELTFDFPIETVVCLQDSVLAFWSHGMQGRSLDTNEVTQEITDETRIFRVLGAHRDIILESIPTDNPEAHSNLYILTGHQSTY

[24] = biological target: Mitogen-activated protein kinase 10 (Homo sapiens) (UniProt P53779); experiment: Inhibition of recombinant full-length human JNK3 at 1 uM using peptide as substrate after 40 mins in presence of [gamma-33P]ATP by scintillation counting method
Sequence of Mitogen-activated protein kinase 10 (Homo sapiens) (P53779 whole entry): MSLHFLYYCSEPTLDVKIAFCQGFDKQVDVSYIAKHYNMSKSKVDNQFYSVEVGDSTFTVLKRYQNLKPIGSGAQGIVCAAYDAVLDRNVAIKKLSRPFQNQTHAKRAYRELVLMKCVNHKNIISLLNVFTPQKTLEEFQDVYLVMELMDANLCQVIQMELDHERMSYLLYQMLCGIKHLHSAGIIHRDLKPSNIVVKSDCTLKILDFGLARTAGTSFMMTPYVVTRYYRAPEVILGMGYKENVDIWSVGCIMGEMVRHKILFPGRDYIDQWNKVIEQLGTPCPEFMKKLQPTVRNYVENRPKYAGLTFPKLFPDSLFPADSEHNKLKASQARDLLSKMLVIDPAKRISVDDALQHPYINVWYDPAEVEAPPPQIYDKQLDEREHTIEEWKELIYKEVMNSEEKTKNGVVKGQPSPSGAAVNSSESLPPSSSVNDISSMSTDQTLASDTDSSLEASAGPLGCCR

CS(=O)(=O)c1ccc(-n2nc(-c3cnc4[nH]ccc4c3)c3c(N)ncnc32)cc1
inhibition [1]: 3% | inhibition [2]: 2% | inhibition [3]: 80% | inhibition [4]: 18% | inhibition [5]: 1% | inhibition [6]: 18% | inhibition [7]: 38% | inhibition [8]: 3% | inhibition [9]: 12% | inhibition [10]: 85% | inhibition [11]: 4% | inhibition [12]: 25% | inhibition [13]: 6% | inhibition [14]: 13% | inhibition [15]: -10% | inhibition [16]: 1% | inhibition [17]: -4% | inhibition [18]: -9% | inhibition [19]: 59% | inhibition [20]: 9% | inhibition [21]: -6% | inhibition [22]: 36% | inhibition [23]: 52% | inhibition [24]: 8%
